Assays:
[1] = system: IL-1α secretion by three-dimensional human epidermal equivalents (EPI-200)
[2] = system: three-dimensional human epidermal equivalents (EPI-200); assay: In vitro Skin Irritation Test, SDS-induced irritation: MTT tissue viability; conditions: for Mean of viability (%): MTT after 42 hr post-exposure
[3] = system: IL-1α secretion by three-dimensional human epidermal equivalents (EPI-200); conditions: 24 h
Experimental: Test materials (30 μl) were topically applied onto three-dimensional human epidermal equivalents (EPI-200 from MatTek, Ashland, Mass.), n=3 tissues per treatment group.

For `CCCCCCCCCCCCOS(=O)(=O)[O-].[Na+]` [SDS, sodium dodecyl sulfate], the “irritant classification by IL-1α results” value [1] was “irritant”, the “Mean of viability (%)” value ([2]; 0.2% SDS, alone or applied after dried 1% OsC) was 74.75% and the “Mean of viability (%)” value ([2]; 0.4% SDS, alone or applied after dried 1% OsC) was 73.04%. The “Mean of viability (%)” value ([2]; 0.6% SDS, alone or applied after dried 1% OsC) was 19.21%, the “irritant classification by MTT assay (cut-off 50% viability)” value ([2]; 0.6% SDS, alone or combined with OsC) was “irritant” and the “Mean of viability (%)” value ([2]; test agent alone (OsC 1%; PC = 5% SDS)) was 3.12%.
With `CC1=C(/C=C/C(C)=C/C=C/C(C)=C/CO)C(C)(C)CCC1` [Retinol, retinol] the “IL-1α (pg/mL) = Average IL1α (pg/mL) treated tissue minus Average IL1α (pg/mL) negative control” value [3] was 98.301 pg/mL.
